Measurements published in ChEMBL document CHEMBL3991601, “The target landscape of clinical kinase drugs” (Science, 2017).
The source made the active and inactive calls. Rule as the data show it, for most assays here: actives have a measured Kd and inactives only a lower limit.

Columns and labels:
[1] = target: Bone morphogenetic protein receptor type-1B (Homo sapiens, UniProt O00238)
[2] = target: Tyrosine-protein kinase BTK (Homo sapiens, UniProt Q06187)
[3] = target: Citron Rho-interacting kinase (Homo sapiens, UniProt O14578)
[4] = target: Tyrosine-protein kinase CSK (Homo sapiens, UniProt P41240)
[5] = target: Casein kinase II subunit alpha' (Homo sapiens, UniProt P19784)
Scaffold protein ILK = target: T1, Scaffold protein ILK (Homo sapiens, UniProt Q13418)
T1 sequence (Q13418 whole entry): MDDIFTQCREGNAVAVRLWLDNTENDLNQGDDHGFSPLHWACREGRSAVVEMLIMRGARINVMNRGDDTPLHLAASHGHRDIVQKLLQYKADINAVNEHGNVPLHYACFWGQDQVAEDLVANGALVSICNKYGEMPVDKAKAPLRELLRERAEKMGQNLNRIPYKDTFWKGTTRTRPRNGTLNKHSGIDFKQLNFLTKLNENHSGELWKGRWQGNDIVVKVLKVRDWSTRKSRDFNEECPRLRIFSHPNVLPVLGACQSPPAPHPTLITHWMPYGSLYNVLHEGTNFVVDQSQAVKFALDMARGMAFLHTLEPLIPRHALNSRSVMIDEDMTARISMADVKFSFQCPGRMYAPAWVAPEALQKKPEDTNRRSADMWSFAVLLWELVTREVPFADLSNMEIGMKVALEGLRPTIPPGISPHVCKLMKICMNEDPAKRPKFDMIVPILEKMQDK

[6] = target: T2, Mitogen-activated protein kinase kinase kinase 2 (Homo sapiens, UniProt Q9Y2U5)
T2 sequence (Q9Y2U5 whole entry): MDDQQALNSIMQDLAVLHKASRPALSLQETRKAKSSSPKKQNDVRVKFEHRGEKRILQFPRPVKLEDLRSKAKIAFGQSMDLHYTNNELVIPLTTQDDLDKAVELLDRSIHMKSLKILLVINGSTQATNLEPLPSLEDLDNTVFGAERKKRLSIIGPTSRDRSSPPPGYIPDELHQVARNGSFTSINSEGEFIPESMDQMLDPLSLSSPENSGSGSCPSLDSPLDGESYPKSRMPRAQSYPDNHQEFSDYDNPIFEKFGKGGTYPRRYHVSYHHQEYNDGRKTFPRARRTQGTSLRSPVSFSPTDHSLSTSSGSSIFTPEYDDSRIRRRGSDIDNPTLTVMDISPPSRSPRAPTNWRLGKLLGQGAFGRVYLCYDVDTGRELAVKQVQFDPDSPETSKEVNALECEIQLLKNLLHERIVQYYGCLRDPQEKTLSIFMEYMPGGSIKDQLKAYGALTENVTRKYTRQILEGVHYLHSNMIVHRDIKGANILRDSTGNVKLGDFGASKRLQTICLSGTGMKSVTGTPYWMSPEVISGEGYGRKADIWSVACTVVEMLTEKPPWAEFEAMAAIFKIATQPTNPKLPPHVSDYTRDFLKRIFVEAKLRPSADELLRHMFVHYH

[7] = target: T3, Mitogen-activated protein kinase 15 (Homo sapiens, UniProt Q8TD08)
T3 sequence (Q8TD08 whole entry): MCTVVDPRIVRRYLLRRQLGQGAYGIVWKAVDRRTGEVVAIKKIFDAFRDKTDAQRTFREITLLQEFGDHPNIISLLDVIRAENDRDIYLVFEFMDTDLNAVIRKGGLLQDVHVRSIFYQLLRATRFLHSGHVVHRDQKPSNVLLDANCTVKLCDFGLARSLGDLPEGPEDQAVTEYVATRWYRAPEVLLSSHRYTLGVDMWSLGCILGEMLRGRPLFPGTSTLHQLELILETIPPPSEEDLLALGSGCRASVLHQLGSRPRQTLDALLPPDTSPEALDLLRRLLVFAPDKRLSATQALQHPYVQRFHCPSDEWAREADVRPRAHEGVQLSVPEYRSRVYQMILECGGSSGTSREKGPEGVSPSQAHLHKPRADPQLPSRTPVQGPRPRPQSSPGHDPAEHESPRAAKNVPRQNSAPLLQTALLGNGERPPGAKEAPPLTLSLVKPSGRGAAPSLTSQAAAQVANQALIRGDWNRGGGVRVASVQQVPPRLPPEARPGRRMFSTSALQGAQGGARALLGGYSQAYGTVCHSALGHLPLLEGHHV

[8] = target: Serine/threonine-protein kinase N1 (Homo sapiens, UniProt Q16512)
[9] = target: cAMP-dependent protein kinase catalytic subunit alpha (Homo sapiens, UniProt P17612)
[10] = target: T4, Serine/threonine-protein kinase D3 (Homo sapiens, UniProt O94806)
T4 sequence (O94806 whole entry): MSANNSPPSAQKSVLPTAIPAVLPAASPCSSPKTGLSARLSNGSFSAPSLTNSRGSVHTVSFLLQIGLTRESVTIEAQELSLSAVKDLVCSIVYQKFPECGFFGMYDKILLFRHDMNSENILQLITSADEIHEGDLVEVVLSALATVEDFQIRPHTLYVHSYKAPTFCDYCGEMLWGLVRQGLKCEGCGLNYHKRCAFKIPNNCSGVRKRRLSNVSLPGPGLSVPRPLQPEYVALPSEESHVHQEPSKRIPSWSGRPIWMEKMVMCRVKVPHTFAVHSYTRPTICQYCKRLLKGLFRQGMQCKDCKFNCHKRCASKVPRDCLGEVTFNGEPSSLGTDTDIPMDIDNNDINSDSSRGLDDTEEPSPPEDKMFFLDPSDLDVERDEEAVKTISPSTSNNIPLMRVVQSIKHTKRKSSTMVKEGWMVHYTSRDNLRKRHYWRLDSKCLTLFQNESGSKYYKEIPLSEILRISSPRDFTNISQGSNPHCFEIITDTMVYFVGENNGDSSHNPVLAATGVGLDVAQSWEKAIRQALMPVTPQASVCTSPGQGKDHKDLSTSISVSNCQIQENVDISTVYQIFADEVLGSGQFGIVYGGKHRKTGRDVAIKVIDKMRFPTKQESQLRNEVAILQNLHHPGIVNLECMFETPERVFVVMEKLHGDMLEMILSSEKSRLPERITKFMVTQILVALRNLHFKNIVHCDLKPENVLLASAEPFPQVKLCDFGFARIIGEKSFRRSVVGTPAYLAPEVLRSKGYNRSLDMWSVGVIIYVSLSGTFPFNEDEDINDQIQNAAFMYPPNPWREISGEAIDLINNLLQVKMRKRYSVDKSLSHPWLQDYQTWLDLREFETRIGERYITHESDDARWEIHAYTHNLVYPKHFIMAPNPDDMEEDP

[11] = target: Mitogen-activated protein kinase kinase kinase 20 (Homo sapiens, UniProt Q9NYL2)
Also: in the data inactive means no Kd found up to 30 µM.

Tyrosine-protein kinase BTK, sequence (Q06187 whole entry): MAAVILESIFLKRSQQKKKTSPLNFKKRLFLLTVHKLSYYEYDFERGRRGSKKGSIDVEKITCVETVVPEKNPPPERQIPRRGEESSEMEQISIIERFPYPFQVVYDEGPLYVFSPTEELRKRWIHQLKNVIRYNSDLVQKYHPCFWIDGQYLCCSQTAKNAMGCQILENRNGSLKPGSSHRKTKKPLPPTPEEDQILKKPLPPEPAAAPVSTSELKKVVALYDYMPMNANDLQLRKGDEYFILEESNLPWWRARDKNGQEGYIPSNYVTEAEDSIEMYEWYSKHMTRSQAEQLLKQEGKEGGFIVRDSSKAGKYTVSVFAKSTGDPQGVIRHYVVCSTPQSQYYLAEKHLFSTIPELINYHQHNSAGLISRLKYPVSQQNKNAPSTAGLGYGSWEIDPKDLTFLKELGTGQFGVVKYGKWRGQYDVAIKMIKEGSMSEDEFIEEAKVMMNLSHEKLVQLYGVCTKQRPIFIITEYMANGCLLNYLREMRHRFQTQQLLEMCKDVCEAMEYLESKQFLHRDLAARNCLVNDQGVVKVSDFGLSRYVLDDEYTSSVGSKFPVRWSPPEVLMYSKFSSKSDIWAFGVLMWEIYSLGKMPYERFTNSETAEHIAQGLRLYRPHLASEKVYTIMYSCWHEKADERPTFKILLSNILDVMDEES
Bone morphogenetic protein receptor type-1B, sequence (O00238 whole entry): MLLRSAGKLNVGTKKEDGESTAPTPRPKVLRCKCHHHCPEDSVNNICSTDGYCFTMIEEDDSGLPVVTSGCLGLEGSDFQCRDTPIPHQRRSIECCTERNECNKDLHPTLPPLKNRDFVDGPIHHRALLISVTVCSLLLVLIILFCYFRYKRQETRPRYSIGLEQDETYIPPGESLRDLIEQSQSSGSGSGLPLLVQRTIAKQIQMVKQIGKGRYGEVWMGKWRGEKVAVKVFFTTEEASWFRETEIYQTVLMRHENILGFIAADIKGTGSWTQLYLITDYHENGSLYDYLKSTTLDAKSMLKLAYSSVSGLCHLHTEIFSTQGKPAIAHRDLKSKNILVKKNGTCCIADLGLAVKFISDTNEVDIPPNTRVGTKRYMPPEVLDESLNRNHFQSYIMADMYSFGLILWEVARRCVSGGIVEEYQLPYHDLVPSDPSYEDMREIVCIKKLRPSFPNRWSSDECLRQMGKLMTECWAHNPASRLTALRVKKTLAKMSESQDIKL
Citron Rho-interacting kinase, sequence (O14578 whole entry): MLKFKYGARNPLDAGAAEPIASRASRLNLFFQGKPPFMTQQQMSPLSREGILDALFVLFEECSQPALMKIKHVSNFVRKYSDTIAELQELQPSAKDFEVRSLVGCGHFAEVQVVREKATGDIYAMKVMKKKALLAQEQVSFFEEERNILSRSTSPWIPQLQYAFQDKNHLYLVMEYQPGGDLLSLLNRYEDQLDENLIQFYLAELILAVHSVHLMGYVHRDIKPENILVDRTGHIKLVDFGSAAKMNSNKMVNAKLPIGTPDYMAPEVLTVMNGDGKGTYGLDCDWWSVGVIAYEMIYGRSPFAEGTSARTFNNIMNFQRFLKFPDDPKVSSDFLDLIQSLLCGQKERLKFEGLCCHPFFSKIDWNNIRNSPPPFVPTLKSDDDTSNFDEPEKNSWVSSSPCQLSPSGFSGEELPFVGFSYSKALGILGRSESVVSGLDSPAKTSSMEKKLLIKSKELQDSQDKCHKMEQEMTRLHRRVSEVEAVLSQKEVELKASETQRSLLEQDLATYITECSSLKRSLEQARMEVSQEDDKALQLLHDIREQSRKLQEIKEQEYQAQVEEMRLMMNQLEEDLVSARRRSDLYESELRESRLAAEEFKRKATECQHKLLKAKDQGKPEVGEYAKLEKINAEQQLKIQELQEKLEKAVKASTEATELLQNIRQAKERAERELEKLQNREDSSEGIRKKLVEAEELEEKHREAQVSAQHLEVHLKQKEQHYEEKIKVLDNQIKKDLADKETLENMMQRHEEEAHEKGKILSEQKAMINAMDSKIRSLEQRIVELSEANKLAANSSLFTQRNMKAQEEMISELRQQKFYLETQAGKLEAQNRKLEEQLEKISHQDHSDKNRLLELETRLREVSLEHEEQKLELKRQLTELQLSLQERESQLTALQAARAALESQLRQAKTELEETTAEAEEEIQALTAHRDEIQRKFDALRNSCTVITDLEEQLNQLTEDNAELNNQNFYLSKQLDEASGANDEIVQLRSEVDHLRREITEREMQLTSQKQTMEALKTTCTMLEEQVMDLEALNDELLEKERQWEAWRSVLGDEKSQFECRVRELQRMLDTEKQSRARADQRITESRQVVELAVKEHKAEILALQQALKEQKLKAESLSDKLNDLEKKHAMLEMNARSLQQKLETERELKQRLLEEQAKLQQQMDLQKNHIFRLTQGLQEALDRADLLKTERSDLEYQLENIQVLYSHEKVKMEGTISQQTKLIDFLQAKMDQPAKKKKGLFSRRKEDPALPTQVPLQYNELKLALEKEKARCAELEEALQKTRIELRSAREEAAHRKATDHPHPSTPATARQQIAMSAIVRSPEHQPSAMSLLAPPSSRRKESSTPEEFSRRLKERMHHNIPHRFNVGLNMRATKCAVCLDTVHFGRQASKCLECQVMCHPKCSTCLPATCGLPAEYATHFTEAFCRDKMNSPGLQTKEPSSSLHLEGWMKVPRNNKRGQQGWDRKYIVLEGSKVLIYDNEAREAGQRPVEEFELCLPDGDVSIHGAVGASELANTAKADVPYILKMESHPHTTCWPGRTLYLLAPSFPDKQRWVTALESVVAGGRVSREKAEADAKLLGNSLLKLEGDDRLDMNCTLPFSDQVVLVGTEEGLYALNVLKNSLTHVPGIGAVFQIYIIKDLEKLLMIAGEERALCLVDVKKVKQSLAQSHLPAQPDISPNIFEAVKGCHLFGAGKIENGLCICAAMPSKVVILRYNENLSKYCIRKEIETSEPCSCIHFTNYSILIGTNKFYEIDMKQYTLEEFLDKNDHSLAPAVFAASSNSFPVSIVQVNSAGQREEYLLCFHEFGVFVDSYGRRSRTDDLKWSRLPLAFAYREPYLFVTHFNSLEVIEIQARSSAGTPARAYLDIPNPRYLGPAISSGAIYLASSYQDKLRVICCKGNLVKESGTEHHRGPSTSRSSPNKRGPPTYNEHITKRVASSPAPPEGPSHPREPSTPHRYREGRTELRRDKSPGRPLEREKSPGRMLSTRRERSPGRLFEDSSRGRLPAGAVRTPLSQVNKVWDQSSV
Casein kinase II subunit alpha', sequence (P19784 whole entry): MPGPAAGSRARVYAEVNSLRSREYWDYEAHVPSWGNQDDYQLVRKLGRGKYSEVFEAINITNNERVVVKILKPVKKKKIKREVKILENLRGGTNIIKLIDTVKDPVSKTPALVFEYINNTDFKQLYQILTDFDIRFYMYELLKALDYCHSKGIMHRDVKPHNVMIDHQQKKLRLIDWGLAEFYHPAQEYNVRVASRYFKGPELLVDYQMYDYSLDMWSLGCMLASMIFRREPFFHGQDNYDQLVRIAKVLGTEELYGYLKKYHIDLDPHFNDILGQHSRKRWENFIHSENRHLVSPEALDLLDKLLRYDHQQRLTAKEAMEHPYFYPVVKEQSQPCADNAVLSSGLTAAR
Mitogen-activated protein kinase kinase kinase 20, sequence (Q9NYL2 whole entry): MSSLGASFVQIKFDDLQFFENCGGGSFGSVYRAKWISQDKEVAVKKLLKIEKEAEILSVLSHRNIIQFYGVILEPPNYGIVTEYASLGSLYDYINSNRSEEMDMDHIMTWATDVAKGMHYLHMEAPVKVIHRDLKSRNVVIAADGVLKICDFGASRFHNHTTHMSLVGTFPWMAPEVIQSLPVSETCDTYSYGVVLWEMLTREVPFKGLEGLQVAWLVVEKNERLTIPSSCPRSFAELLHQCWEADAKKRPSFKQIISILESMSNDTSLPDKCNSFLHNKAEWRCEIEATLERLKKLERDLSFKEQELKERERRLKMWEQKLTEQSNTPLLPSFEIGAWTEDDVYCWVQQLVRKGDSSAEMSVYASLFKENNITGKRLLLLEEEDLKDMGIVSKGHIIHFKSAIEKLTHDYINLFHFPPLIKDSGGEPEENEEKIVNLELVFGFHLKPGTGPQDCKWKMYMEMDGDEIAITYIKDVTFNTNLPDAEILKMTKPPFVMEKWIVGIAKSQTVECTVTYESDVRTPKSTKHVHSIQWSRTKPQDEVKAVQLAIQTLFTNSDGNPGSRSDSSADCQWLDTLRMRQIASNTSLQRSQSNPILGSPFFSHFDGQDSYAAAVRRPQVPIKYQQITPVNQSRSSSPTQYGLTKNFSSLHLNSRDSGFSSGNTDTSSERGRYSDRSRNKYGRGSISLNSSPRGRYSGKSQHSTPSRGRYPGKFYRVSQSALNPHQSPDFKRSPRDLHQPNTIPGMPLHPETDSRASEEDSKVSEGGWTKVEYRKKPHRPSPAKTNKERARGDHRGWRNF

Kd [1]	Kd [2]	Kd [3]	Kd [4]	Kd [5]	Kd (Scaffold protein ILK)	Kd [6]	Kd [8]	Kd [9]	Kd [10]	Kd [11]	Structure (SMILES)	Kd [7]
> 30 µM (inactive)	> 30 µM (inactive)	> 30 µM (inactive)	> 30 µM (inactive)	> 30 µM (inactive)	> 30 µM (inactive)	> 30 µM (inactive)	> 30 µM (inactive)	> 30 µM (inactive)	> 30 µM (inactive)	> 30 µM (inactive)	C[C@@H](Nc1cc(F)cc(F)c1)c1cc(C(=O)N(C)C)cc2c(=O)cc(N3CCOCC3)oc12 [AZD-8186]	> 30 µM (inactive)
> 30 µM (inactive)	> 30 µM (inactive)	> 30 µM (inactive)	> 30 µM (inactive)	> 30 µM (inactive)	> 30 µM (inactive)	> 30 µM (inactive)	> 30 µM (inactive)	> 30 µM (inactive)	> 30 µM (inactive)	> 30 µM (inactive)	CC(C)Nc1cc(-c2c[nH]c(C(=O)N[C@H](CO)c3cccc(Cl)c3)c2)c(Cl)cn1 [ULIXERTINIB]	> 30 µM (inactive)
> 30 µM (inactive)	> 30 µM (inactive)	> 30 µM (inactive)	> 30 µM (inactive)	> 30 µM (inactive)	> 30 µM (inactive)	> 30 µM (inactive)	> 30 µM (inactive)	> 30 µM (inactive)	> 30 µM (inactive)	> 30 µM (inactive)	C[C@@H]1CN(Cc2ccc(F)cc2)[C@@H](C)CN1C(=O)c1cc2c(C(=O)C(=O)N(C)C)cn(C)c2cc1Cl [TALMAPIMOD]	> 30 µM (inactive)
1.82 µM (active)	0.494 µM (active)	> 30 µM (inactive)	> 30 µM (inactive)	> 30 µM (inactive)	> 30 µM (inactive)	> 30 µM (inactive)	> 30 µM (inactive)	> 30 µM (inactive)	> 30 µM (inactive)	> 30 µM (inactive)	COc1cc(N2CCC(N3CCN(C)CC3)CC2)ccc1Nc1ncnc(Nc2ccccc2S(=O)(=O)C(C)C)n1 [ASP-3026]	> 30 µM (inactive)
> 30 µM (inactive)	> 30 µM (inactive)	> 30 µM (inactive)	> 30 µM (inactive)	> 30 µM (inactive)	> 30 µM (inactive)	> 30 µM (inactive)	> 30 µM (inactive)	> 30 µM (inactive)	> 30 µM (inactive)	> 30 µM (inactive)	CNC(=O)CN1CCC(Oc2cc3c(Nc4cccc(Cl)c4F)ncnc3cc2OC)CC1 [SAPITINIB]	> 30 µM (inactive)
> 30 µM (inactive)	> 30 µM (inactive)	> 30 µM (inactive)	> 30 µM (inactive)	> 30 µM (inactive)	> 30 µM (inactive)	> 30 µM (inactive)	> 30 µM (inactive)	> 30 µM (inactive)	> 30 µM (inactive)	> 30 µM (inactive)	CNC(=O)c1ccc(C)c(-n2c(C)cc(OCc3ccc(F)cc3F)c(Br)c2=O)c1 [PH-797804]	> 30 µM (inactive)

More lines, now with the values behind:

Structure (SMILES)	Kd [1]	Kd [2]	Kd [3]	Kd [4]	Kd [5]	Kd (Scaffold protein ILK)	Kd [6]	Kd [8]	Kd [9]	Kd [10]	Kd [11]	Kd [7]
CN1CC[C@@H](c2c(O)cc(O)c3c(=O)cc(-c4ccccc4Cl)oc23)[C@@H]1CO	> 30 µM (inactive)	> 30 µM (inactive)	> 30 µM (inactive)	> 30 µM (inactive)	> 30 µM (inactive)	> 30 µM (inactive)	> 30 µM (inactive)	> 30 µM (inactive)	> 30 µM (inactive)	2.54 µM (active)	> 30 µM (inactive)	> 30 µM (inactive)
Cn1cc(-c2ccc3nnc(C(F)(F)c4ccc5ncccc5c4)n3n2)cn1 [JNJ-38877605]	> 30 µM (inactive)	> 30 µM (inactive)	> 30 µM (inactive)	> 30 µM (inactive)	> 30 µM (inactive)	> 30 µM (inactive)	> 30 µM (inactive)	> 30 µM (inactive)	> 30 µM (inactive)	> 30 µM (inactive)	> 30 µM (inactive)	> 30 µM (inactive)
CNC(=O)c1ccc(-c2cnc3ncc(Cc4ccc5ncccc5c4)n3n2)cc1F [CAPMATINIB]	> 30 µM (inactive)	> 30 µM (inactive)	> 30 µM (inactive)	> 30 µM (inactive)	> 30 µM (inactive)	> 30 µM (inactive)	> 30 µM (inactive)	> 30 µM (inactive)	> 30 µM (inactive)	> 30 µM (inactive)	> 30 µM (inactive)	> 30 µM (inactive)
N[C@@H]1CCCN(c2c(/C=C3\SC(=O)NC3=O)cccc2-c2ccccc2)C1	> 30 µM (inactive)	> 30 µM (inactive)	> 30 µM (inactive)	> 30 µM (inactive)	3.02 µM (active)	> 30 µM (inactive)	> 30 µM (inactive)	> 30 µM (inactive)	> 30 µM (inactive)	> 30 µM (inactive)	> 30 µM (inactive)	> 30 µM (inactive)
CN1CCC(COc2cnc(-c3cccc(Cn4nc(-c5cccc(C#N)c5)ccc4=O)c3)nc2)CC1 [TEPOTINIB]	> 30 µM (inactive)	> 30 µM (inactive)	> 30 µM (inactive)	> 30 µM (inactive)	> 30 µM (inactive)	> 30 µM (inactive)	> 30 µM (inactive)	> 30 µM (inactive)	> 30 µM (inactive)	> 30 µM (inactive)	> 30 µM (inactive)	> 30 µM (inactive)
O=C(c1ccc(F)c(F)c1Nc1ccc(I)cc1F)N1CC(O)([C@@H]2CCCCN2)C1 [COBIMETINIB]	> 30 µM (inactive)	> 30 µM (inactive)	> 30 µM (inactive)	> 30 µM (inactive)	> 30 µM (inactive)	> 30 µM (inactive)	> 30 µM (inactive)	> 30 µM (inactive)	> 30 µM (inactive)	> 30 µM (inactive)	> 30 µM (inactive)	> 30 µM (inactive)
